{
  "source": "patent US20020132832A1",
  "about": "“Treatment of erectile dysfunction” (priority 2001, published 2002)",
  "key": {"cultured cells": {"test_system": "cultured cells", "settings": "cited from earlier work"}, "cavernous sinuses": {"test_system": "cavernous sinuses", "assay": "Erectile response to 5V ganglionic stimulation after vasoconstrictor injected into cavernous sinuses", "format": "in vivo", "settings": "for effect on erectile response to 5V ganglionic stimulation: METHOX 10 μg/kg or ET-1 50 pmol into cavernous sinuses", "protocol": "Thus, FIGS. 8 and 9 show results where after an initial (5V) ganglionic stimulation (Cont), either the α-adrenergic agonist, Methoxamine (METHOX) (10 μg/kg) or endothelin-1 (ET-1) (50 pmol) was injected into the cavernous sinuses."}, "rat aorta": {"test_system": "rat aorta", "assay": "Rat aortic rings, endothelium intact or denuded, PE-induced contraction", "format": "cell-based", "from_the_text": "In these experiments, aorta (3 mm rings) were cleaned of adherent connective tissue and hung on stainless steel hooks attached between a force transducer and stationary mount for the measurement of isometric force generation. Endothelium was removed from some vessels by gentle rubbing of the lumen with a steel wire. Aortic rings were then placed in an isolated chamber, bathed in physiologic salt solution (mmol/L: 130 NaCl, 4.7 KCl, 1.18 KHPO4, 1.17 MgSO4, 1.6 CaCl2-2H2O, 14.9 NaHCO3, 5.5 dextrose, and 0.03 CaNa2EDTA; 37° C.) and gassed with 95% O2/5%CO2 Rings were set at 3 g passive tension and treated with indomethacin (1 μmol/L) to inhibit prostaglandin synthesis. Following a one hour equilibration period, vessels were contracted with phenylephrine (PE) (0.1 μmol/L) and subsequently treated with acetylcholine (1 μmol/L) to test for the presence of endothelium."}, "corpus cavernosum [1]": {"test_system": "corpus cavernosum", "assay": "Intracavernosal injection in anesthetized rat, CCP/MAP without ganglionic stimulation", "format": "in vivo", "parameters": "time to plateau of CCP/MAP increase: unit not given here", "protocol": "(§1) Using an in vivo rat model, the effect of Rho-kinase inhibition on corpus cavernosum (CCP) and mean arterial pressure (MAP) was examined. The left carotid artery and right corpus cavernosum of the rat penis were cannulated for continuous monitoring of MAP and CCP respectively as described by Mills, T., et al., (Biol. Reprod. 59, 1413-1418, 1998; J. Appl. Physiol., 91: 1269-1273, 2001). Rats were anesthetized with intramuscular ketamine (87 mg/kg body wt) plus xylazine (13 mg/kg) and maintained on supplemental ketamine as needed. Vasoactive drugs were administered through a cannula in the left corpus cavernosum. For experiments measuring voltage-stimulated changes in CCP and MAP, stainless steel bipolar electrodes were positioned on the right major pelvic ganglion. […] All pressure data were collected for analysis using Polyview data-acquisition software."}, "castrated rats": {"test_system": "castrated rats", "assay": "Erectile response to graded ganglionic stimulation in castrated rats", "format": "in vivo, rat", "settings": "intracavernosal injection, 1-5 V", "from_the_text": "Rats which have been rendered severely hypogonadal by surgical castration show a diminished erectile response."}, "erectile tissue": {"test_system": "erectile tissue", "assay": "Erectile response ICP/MAP to NO donor and Rho-kinase inhibitor injected into erectile tissue", "format": "in vivo", "settings": "small/low dose injected directly into erectile tissue"}, "SHRSP rats": {"test_system": "SHRSP rats", "assay": "Ganglionic-mediated ICP/MAP in stroke prone spontaneously hypertensive rats (SHRSP)", "format": "in vivo, rat", "settings": "50 nmol/kg into left corpus cavernosum, 1-5 V", "from_the_text": "(§2) In these experiments, male Sprague-Dawley rats (200-250 g; Harlan) were made DOCA-salt hypertensive by uninephrectomy and implantation of a deoxycorticosterone-acetate (DOCA) silastic pellet at the back of the neck. DOCA rats received saltwater (1% NaCl, 0.2% KCl) for 4 weeks. Sham control rats were uninephrectomized and drank tap water. Male stroke prone-spontaneously hypertensive rats (12 weeks old, 350 g) were obtained from the breeding colony at the Medical College of Georgia, Augusta, Ga. Systolic blood pressures were taken by tail cuff measurement (DOCA/sham: after 4 weeks treatment; SHRSP: at 12 weeks of age). Measurement of ICP/MAP was as described above. […] Subsequently, the ICP/MAP response to ganglionic stimulation was assessed over a range of voltages."}, "[2]": {"test_system": "DOCA-salt hypertensive rats", "assay": "Ganglionic-mediated ICP/MAP in DOCA-salt hypertensive rats", "format": "in vivo, rat", "settings": "50 nmol/kg into left corpus cavernosum, 1-5 V", "from_the_text": "as §2"}, "[3]": {"test_system": "animal model of hypertension", "settings": "cited from earlier work"}, "[4]": {"settings": "male, rat, in vivo", "protocol": "as §1"}, "corpus cavernosum [5]": {"test_system": "corpus cavernosum", "assay": "Ganglionic (major pelvic ganglion) stimulated increase in CCP/MAP in anesthetized rat", "format": "in vivo", "settings": "for effect on baseline CCP or MAP: no stimulation; for CCP/MAP at 5 V (mean ± s.e.m.): n=4", "protocol": "as §1\nAfter initial measurements of CCP and MAP during ganglionic stimulation, rats were treated with L-NNA, L-NAME (200 μg/kg body weight), or saline control, and after 5 min ganglionic stimulation and CCP/MAP measurements were repeated. […] After 5 min, a 5-V stimulation was repeated, and CCP and MAP measurements were recorded.\nRho-kinase inhibition can also overcome muscle contraction due to inhibition of cyclic GMP formation. […] After 5 min, a 5-V stimulation was repeated, and CCP and MAP measurements were recorded."}, "[6]": {"test_system": "isolated rat cavernosal tissue", "assay": "Isolated rat cavernosal strips, relaxation of agonist-induced contraction", "format": "cell-based", "settings": "for effect on relaxation response of cavernosal strips to 1 μM Y-27632: 10 μM incubation", "protocol": "Cavernosal strips (3-4 mm long) were prepared by removal of the corpus spongiosum and dorsal vein, and the proximal portion of the corpus cavernosum divided across the midline of the intact penis. Right and left longitudinal strips were mounted in an isolated muscle bath for measurement of contractile force generation. Strips were bathed in physiologic salt solution (130 mM NaCl, 4.7 mM KCl, 1.18 mM KHPO4, 1.17 mM […], 1.6 mM CaCl2-2H2O, 14.9 mM NaHCO3, 5.5 mM dextrose, and 0.03 mM CaNa2 EDTA), at 37° C., and gassed with 95% O2/5% CO2."}, "corpus cavernosum [7]": {"test_system": "corpus cavernosum", "assay": "Erectile response to electrical stimulation of the autonomic ganglion after phosphatase inhibitor injected into corpus cavernosum", "format": "in vivo", "settings": "data not shown", "from_the_text": "In an embodiment, the target of Rho-kinase is MLC phosphatase (FIG. 2). […] With MLC phosphatase activity inhibited, the resulting high levels of phosphorylated myosin light chain keep the sexual organs in a nonerect state."}, "[8]": {"settings": "200 μg/kg into cavernosal sinuses"}},
  "data": [
    {"compound": "CC(N)[C@H]1CC[C@H](C(=O)Nc2ccncc2)CC1", "note": "(single isomer, unassigned; (+)) [Y-27632, monohydrate]", "values": [
      {"measurement": "smooth muscle relaxation", "setting": "cultured cells", "value": "cause smooth muscle relaxation"},
      {"measurement": "effect on vasoconstrictor action of ET-1", "setting": "cavernous sinuses; 50 nmol before ET-1 50 pmol, 5V", "value": "vasoconstrictor effect was prevented"},
      {"measurement": "effect on vasoconstrictor action of METHOX", "setting": "cavernous sinuses; 50 nmol before METHOX 10 μg/kg, 5V", "value": "vasoconstrictor effect was prevented"},
      {"measurement": "vasodilator sensitivity to SNP", "setting": "rat aorta; 1 μmol/L prior to PE contraction, endothelium-denuded vessels", "value": "increased vasodialator sensitivity to SNP"},
      {"measurement": "inhibition of force generation to 10 μmol/L PE", "setting": "rat aorta; 1 μmol/L, endothelium denuded vessels", "value": "completely ineffective"},
      {"measurement": "inhibition of force generation to 10 μmol/L PE", "setting": "rat aorta; 1 μmol/L, endothelium intact rings", "value": "significant inhibition of force generation"},
      {"measurement": "inhibition of contractile response to 10 μmol/L PE", "setting": "rat aorta; 1 μmol/L, endothelium intact, in presence of L-NNA (100 μmol/L) or ODQ (10 μmol/L)", "value": "significantly less effective"},
      {"measurement": "inhibition of contractile response to 10 μmol/L PE", "setting": "rat aorta; 10 μmol/L or 100 μmol/L, endothelium denuded rings", "value": "concentration dependent inhibition"},
      {"measurement": "increase in CCP/MAP", "setting": "corpus cavernosum [1]; 2.0-400 nmol/kg body weight in 2 μl saline into left corpus cavernosum sinuses, no stimulation", "value": "significant dose-dependent increase"},
      {"measurement": "time to plateau of CCP/MAP increase", "setting": "corpus cavernosum [1]; 2.0-400 nmol/kg intracavernosal", "value": "about four"},
      {"measurement": "maximum increase in CCP/MAP over control", "setting": "corpus cavernosum [1]; range of 2.0-200 nmol/kg, independent of significant changes in MAP", "value": 74, "unit": "%"},
      {"measurement": "erectile response", "setting": "castrated rats", "value": "restored to levels similar to those in age-matched intact animals"},
      {"measurement": "erectile response (increase in ICP/MAP)", "setting": "erectile tissue", "value": "cause an erectile response"},
      {"measurement": "erectile response (ICP/MAP)", "setting": "SHRSP rats", "value": "significantly increasing the erectile response"},
      {"measurement": "erectile response (ICP/MAP)", "setting": "[2]", "value": "elevating the erectile response to near normal levels"},
      {"measurement": "smooth muscle relaxation", "setting": "[3]", "value": "cause smooth muscle relaxation"},
      {"measurement": "dose at which MAP was significantly decreased", "setting": "[4]", "value": "≥ 400", "unit": "nmol/kg"},
      {"measurement": "effect on attenuation of ganglionic-induced CCP/MAP increase by NOS inhibition", "setting": "corpus cavernosum [5]; 50 nmol/kg after L-NAME, 5 V", "value": "overcome"},
      {"measurement": "effect on CCP/MAP response to ganglionic stimulation", "setting": "corpus cavernosum [5]; 200 nmol/kg into cavernous sinuses, 0-5 V", "value": "potentiated the CCP/MAP response to ganglionic stimulation at each voltage"},
      {"measurement": "ganglionic-stimulated rise in CCP/MAP at lowest voltages", "setting": "corpus cavernosum [5]; 200 nmol/kg, lowest stimulation voltages", "value": "near maximal levels"},
      {"measurement": "increase in ganglionic-stimulated CCP/MAP at 5 V", "setting": "corpus cavernosum [5]; 2.0-200 nmol/kg, 5 V", "value": "21-38%"},
      {"measurement": "IC50", "setting": "[6]; Rattus norvegicus, read-out: IC50, relaxation of PE-induced tone", "value": 1000, "unit": "nM"}
    ]},
    {"compound": "COC(=O)[C@@H](N)CCCNC(=N)N[N+](=O)[O-]", "note": "[L-NAME, N^ω-nitro-L-arginine methyl ester]", "values": [
      {"measurement": "effect on increase in CCP/MAP induced by 5 V stimulation", "setting": "corpus cavernosum [5]; 200 μg/kg into cavernosal sinuses, 5 V", "value": "significantly attenuated"},
      {"measurement": "effect on baseline CCP or MAP", "setting": "corpus cavernosum [5]; [8]", "value": "did not alter CCP or MAP from baseline"},
      {"measurement": "effect on relaxation response of cavernosal strips to 1 μM Y-27632", "setting": "[6]", "value": "did not significantly alter"},
      {"measurement": "effect on PE-induced contraction", "setting": "[6]; 10 μM, 15 min", "value": "no effect"}
    ]},
    {"compound": "N=C(NCCC[C@H](N)C(=O)O)N[N+](=O)[O-]", "note": "[L-NNA, N^ω-nitro-L-arginine]", "values": [
      {"measurement": "effect on baseline CCP or MAP", "setting": "corpus cavernosum [5]; [8]", "value": "did not alter CCP or MAP from baseline"}
    ]},
    {"compound": "CN(C)c1ccc2nc3ccc(=[N+](C)C)cc-3sc2c1", "note": "[MB, methylene blue]", "values": [
      {"measurement": "CCP/MAP at 5 V (mean ± s.e.m.)", "setting": "corpus cavernosum [5]; MB 300-500 μg/kg intracavernosal, Y-27632 50-200 nmol/kg in continued presence of MB", "value": "0.49±0.04"},
      {"measurement": "effect on relaxation response of cavernosal strips to 1 μM Y-27632", "setting": "[6]", "value": "did not significantly alter"}
    ]},
    {"compound": "COc1ccc(OC)c(C(O)C(C)N)c1", "note": "(centres unmarked) [METHOX, Methoxamine]", "values": [
      {"measurement": "effect on erectile response to 5V ganglionic stimulation", "setting": "cavernous sinuses", "value": "lowered the erectile response"}
    ]},
    {"compound": "O=c1onc2cnc3ccccc3n12", "note": "[ODQ, 1H-[1,2,4]oxadiozolo-[4,3-a]quinoxalin-1]", "values": [
      {"measurement": "CCP/MAP at 5 V (mean ± s.e.m.)", "setting": "corpus cavernosum [5]; ODQ 300-500 μg/kg intracavernosal, Y-27632 50-200 nmol/kg in continued presence of ODQ", "value": "0.50±0.07"}
    ]},
    {"compound": "[Na+].[Na+].[Na+].[O]=[V]([O-])([O-])[O-]", "note": "[SOV, sodium orthovanadate]", "values": [
      {"measurement": "inhibition of erectile response", "setting": "corpus cavernosum [7]; 0.1 and 1 μmol/L SOV", "value": "significant inhibition"},
      {"measurement": "effect on erectile response", "setting": "corpus cavernosum [7]; injected into corpus cavernosum immediately before stimulation", "value": "inhibits the erectile response in a dose dependent manner"}
    ]},
    {"compound": "(+/−)-(E)-methyl-2-((E)-hydroxyimino)-5-nitro-6-methoxy-3-hexenamide [NOR-1]", "values": [
      {"measurement": "erectile response (increase in ICP/MAP)", "setting": "erectile tissue", "value": "intermediate erectile response"}
    ]},
    {"compound": "endothelin-1 (CSCSSLMDKECVYFCHLDIIW; Endothelin-1; UniProt P05305 53-73, looked up) [ET-1, vasoconstrictor]", "values": [
      {"measurement": "effect on erectile response to 5V ganglionic stimulation", "setting": "cavernous sinuses", "value": "lowered the erectile response"}
    ]}
  ]
}
